The values that follow come from patent US12311028B2, “Polymer-based macromolecular prodrugs” (The Children's Hospital of Philadelphia, priority 2018, dated 2025).

The subject of experiment [1] is orthotopic IMR-32 xenografts. Kind of experiment: Therapeutic efficacy of PF108-(SN22)2 in orthotopic IMR-32 xenograft model. Type of experiment: in vivo, mice. The settings on record: PF108-(SN22)2 once a week; irinotecan 2x a week; 10 mg drug per kg. An excerpt: Mice were inoculated with 10^6 luciferase-expressing IMR-32 cells. […] Tumor-associated signal was monitored by quantitative bioluminescence. Quantitative data are shown as mean±SD.

Experiment [2] deals with SKNBE(2)C orthotopic xenograft. The experiment can be described thus: NB orthotopic xenograft model with chemo-resistant SKNBE(2)C. In kind it is in vivo, mice. To be noted: once a week x4 weeks; prodrugs 10 mg/kg/dose, CPT-11 15 mg/kg/dose.
Method: Chemoresistant, luciferase transfected, SKNBE(2)C cells (107) were injected in the perineal fat pad of nude mice. Mice were divided into five groups: no treatment, or treatment with blank PEG, CPT-11, PEG-[SN38]4 or PEG-[SN22]4 (10 animals per group). Treatment started when tumors reached about 0.2 cm^3.
Mice were divided into five groups: no treatment, or treatment with blank PEG, CPT-11, PEG-[SN22]4 or PEG-[SN38]4 (10 animals per group). Treatment started when tumors reached about 0.2 cm^3.
Next, PEG-[SN22]4, PEG-[SN38]4 and CPT-11 in a NB orthotopic xenograft mouse model with the chemo-resistant NB line SKNBE(2)C. BE(2)C cells were transfected with a luciferase expression vector to allow for bioluminescent imaging. Mice were treated once a week for 4 weeks with either PEG-[SN22]4 (10 mg/kg/dose), PEG-[SN38]4 (10 mg/kg/dose) or CPT-11 (15 mg/kg/dose).
BE(2)C cells were transfected with a luciferase expression vector to allow for bioluminescent imaging. Mice were treated once a week for four weeks with either PEG-[SN22]4 (10 mg/kg/dose), PEG-[SN38]4 (10 mg/kg/dose) or CPT-11 (15 mg/kg/dose).
The test system of experiment [3] is spontaneous NB tumors, TH-MYCN transgenic mouse. The experiment can be described thus: TH-MYCN transgenic mouse model of de novo NB. In kind it is in vivo, mice. To be noted: once a week x4 weeks; PEG-[SN22]4 10 mg/kg/dose, CPT-11 15 mg/kg/dose.
Method: Mice were treated with saline (N=8), CPT-11 (15 mg/kg/dose; N=7), PEG-[SN38]4 (10 mg/kg/dose; N=6) or PEG-[SN22]4 (10 mg/kg/dose; N=6) IV by tail vein once a week×4 weeks. Treatments started when the mice were about 5 weeks old with a tumor size about 1-2 cm^3.
PEG-[SN22]4 was also used to treat de novo NBs in a TH-MYCN transgenic mouse model. Spontaneous tumors develop in paraspinal ganglia or in the adrenal gland by 4-5 weeks in almost all mice with two copies of the transgene. Mice were divided into 4 groups once tumors became palpable (4-5 weeks): control-no treatment; CPT-11 treatment (15 mg/kg/dose), PEG-[SN38]4 (10 mg/kg/dose), or PEG-[SN22]4 (10 mg/kg/dose). Mice were treated once a week for 4 weeks. […] Mice were sacrificed when they became symptomatic from tumor burden.
Mice. Six-week-old Foxn1^nu/Foxn1^nu (JAX stock #007850) mice from Jackson Laboratories are used. Mice are maintained under humidity- and temperature-controlled conditions in a light/dark cycle that is set at 12-hour intervals. These mice are in a 129-SvJ background. Mice homozygous for the transgene generally develop tumors within 4-5 weeks.
Experiment [4] has as its system disseminated BE(2)C tumor deposits. The experiment can be described thus: Therapeutic efficacy of [PEG-SN38-BG]8 in model of metastatic, refractory NB. Type of experiment: in vivo, mice. The settings on record: from day 25, 4 weeks 2x/week; prodrug 10 mg SN-38 per kg, irinotecan 15 mg/kg. The method, then: Mice were injected through the tail vein with 10^6 luciferase-expressing BE(2)C cells. […] Tumor-associated signal was monitored by quantitative bioluminescence ((A), data shown as mean±SD). Representative images are included in (B).

The test system of experiment [5] is orthotopic BE(2)C xenografts. The experiment can be described thus: Therapeutic efficacy of [PEG-SN38-BG]8 in orthotopic model of refractory NB. In kind it is in vivo, mice. On the procedure:
FIG. 12: Therapeutic efficacy of [PEG-SN38-BG]8 in an orthotopic model of refractory, high-risk NB. Athymic nude (nu/nu) mice were inoculated with BE(2)C cells (10^6) stably expressing luciferase. Treatment with [PEG-SN38-BG]8 was administered intravenously at a dose equivalent to 10 mg/kg of SN-38 twice a week for 4 weeks. […] A group of mice administered with saline (no treatment) was used as a negative control. In an additional group, the prodrug was administered using the same regimen to animals allowed to reach a 10-fold larger tumor size (2.0 cm^3, ‘large tumors’). Tumor-associated signal was monitored by quantitative bioluminescence. Data presented graphically in (A) are expressed as mean±SD. The survival curves for respective animal groups over a 190-day period are shown in (B).
FIG. 16: Therapeutic efficacy of [PEG-SN38-BG]8 in an orthotopic model of refractory, high-risk NB. Athymic nude (nu/nu) mice were inoculated with BE(2)C cells (10^6) stably expressing luciferase. Treatment with [PEG-SN38-BG]8 was administered intravenously at a dose equivalent to 10 mg/kg of SN-38 twice a week for 4 weeks. […] Groups of mice administered either with blank PEG or saline (no treatment) were used as negative controls (A). […] Tumor-associated signal was monitored by quantitative bioluminescence. Data are presented as mean±SD.

Experiment [6] relates to orthotopic IMR-32 xenografts. Kind of experiment: Therapeutic efficacy of [PEG-SN38-BG]8 in orthotopic IMR-32 xenograft model. Type of experiment: in vivo, mice. To be noted: doses equivalent to 10 mg SN-38 per kg, 2x week over 4 weeks, from day 21. An excerpt:
FIG. 15: Therapeutic efficacy of [PEG-SN38-BG]8 in an orthotopic xenograft model of chemo-naïve, MYCN-amplified NB. Mice were inoculated with 10^6 luciferase-expressing IMR-32 cells. […] Tumor-associated signal was monitored by quantitative bioluminescence. Data in (A) are shown as mean±SD. Representative bioluminescent images for each group are included in (B).
FIG. 17: Therapeutic efficacy of [PEG-SN38-BG]8 in an orthotopic xenograft model of chemo-naïve, MYCN-amplified NB. Mice were inoculated with 10^6 luciferase-expressing IMR-32 cells. […] Tumor-associated signal was monitored by quantitative bioluminescence. Data in (A) are shown as mean±SD. Representative images are included in (B).
The effectiveness of the tripartite prodrug strategy in providing sustained anticancer effects against aggressive NB tumors was shown experimentally in an orthotopic IMR-32 xenograft model (FIG. 15).

For experiment [7], the system named is orthotopic BE(2)C xenograft tumors. Kind of experiment: Therapeutic efficacy of NET-directed Pluronic F-108 tripartite prodrug in refractory NB model. The settings on record: 4 weeks 2x/week; constructs 10 mg SN-38 per kg, irinotecan 15 mg/kg. In kind it is in vivo, mice. The text has this:
FIG. 21: Therapeutic efficacy of NET-directed delivery in a model of refractory NB. Mice were inoculated in the suprarenal fat pad with 10^6 luciferase-expressing BE(2)C cells. […] Alternatively, tumors were allowed to reach 2 cm^3 before starting therapy (B). Disease progression was monitored by quantitative bioluminescence. Tumor growth data are shown as mean±SD.

Experiment [8] concerns orthotopic BE(2)C xenografts. Type of experiment: in vivo. The settings on record: PF108-(SN22)2 10 mg/kg SN22 IV once a week x4; irinotecan 10 mg/kg SN38 twice a week. The text has this: Saline or chemically unmodified Pluronic F-108 were used as negative controls.
Experiment [9] deals with NLF and ABCG2-expressing clones. Kind of experiment: Growth of NLF and ABCG2-expressing clones in presence of SN38 or SN22 (IncuCyte). Type of experiment: cell-based, human. The method, then:
FIG. 7: ABCG2 expression and growth of NLF and transfected clones. (A) Western analysis was performed on NLF and three single-cell clones with an ABCG2 antibody (Santa Cruz), compared to an actin control. Clones 1, 2 and 3 had trace, low and, intermediate levels of ABCG2 expression, respectively. (B) Growth of NLF and ABCG2-expressing clones in the presence of SN38 or SN22 (50 ng/ml). Growth shown at day 4.
To evaluate susceptibility of SN38 and SN22 to ABCG2 efflux, an ABCG2-null NB cell line, NLF, was identified. NLF was transfected with an ABCG2 expression vector, and then selected single-cell clones with trace, low, and intermediate levels of ABCG2 expression (FIG. 7A). Next, the sensitivity of NLF and ABCG2-expressing clones to different concentrations of SN38 or SN22 and monitored growth continuously using IncuCyte® S3 Live-Cell Analysis System was assessed.

In another experiment the test system is BE(1) cells. To be noted: derived at diagnosis; cited from earlier work.
Experiment [10] deals with BE(2)C cells. Kind of experiment: Antiproliferative effect of [PEG-SN38-BG]8 on BE(2)C with/without vorinostat or entinostat. To be noted: 6 hr exposure, 25-100 nM SN-38 equivalent, vorinostat 1.25-5.0 μM, 6 days post treatment. Type of experiment: cell-based, human.
Method: Cell growth was measured by bioluminescence. BE(2)C cell survival data at 6 days post treatment were analyzed for hyperadditivity by applying a model z=z0+A·x+B·y+C·[x·y] and determining the significance of the interaction term C.
The effect on cell growth kinetics was studied in comparison to free SN-38 or bipartite [PEG-SN38]8 lacking functionalization with BG (A). Cells were exposed for 4 hr to equivalent concentrations of the compounds, corresponding to 125 nM of SN-38. In an additional experiment (B), the response to treatment with [PEG-SN38-BG]8 was examined with/without a HDAC1-specific inhibitor, entinostat (0-5 μM). The doses of the prodrug were varied within a range equivalent to 0-100 nM SN-38, and the exposure duration was fixed at 6 hr. Cell growth was monitored by bioluminescence. The response is shown as % cell survival (mean±SD) at 6 days post-treatment. Experimental data were analyzed for hyperadditivity using a model z=z0+A·x+B·y+C·[x·y] and determining the significance of the interaction term C.
To evaluate the specific contribution of the targeting ligand incorporated in the prodrug structure, the cell growth inhibitory activity of [PEG-SN38-BG]8 on NET-expressing, chemoresistant NB cells was compared to that of a control molecule, [PEG-SN38]8, constructed analogously but without the BG moiety.
Experiment [11] concerns BE(2)C cells. The experiment can be described thus: Antiproliferative effect of PF68-SN38-BG vs PF68-SN38 and SN-38 on BE(2)C, 15-min exposure. To be noted: SN-38 equivalent dose 0-25 nM. In kind it is cell-based, human. An excerpt: Blank Pluronic F-68 had no effect on cell growth.
Experiment [12] concerns BE(2)C cells. To be noted: derived at relapse; cited from earlier work.
Experiment [13] has as its system BE(2)C cells. To be noted: free SN22 with or without unmodified Pluronic F-108.

Entries after “also recorded” stand apart in the source; their conditions may differ. Read-outs that look alike come from different tables or passages of the source.

With `CCc1c2c(nc3ccc(OC(=O)N4CCC(N5CCCCC5)CC4)cc13)-c1cc3c(c(=O)n1C2)COC(=O)[C@]3(O)CC` [irinotecan], the entries for the “tumor response (bioluminescence)” value in [1] and in experiment [6] were “only a transient response” and “tumors starting to regrow immediately after treatment cessation; also recorded: able to inhibit tumor growth for the duration of treatment”, respectively. The “tumor response during treatment” value in [2] is “had no effect; also recorded: had very little effect; also recorded: only slightly delayed”. In experiment [3], the tumor response result was “only slightly delayed”. For the same compound, the “disease progression (bioluminescence)” value in [4] is “no significant effect on the disease progression”. Also, the “tumor growth (bioluminescence), FIG. 16A” value in experiment [5] (2x/week over 4 weeks, prodrugs 10 mg/kg SN-38, irinotecan 15 mg/kg) is recorded as “no antitumor effect”. Further, the “tumor growth (bioluminescence), FIG. 12” value in [5] ([PEG-SN38-BG]8 10 mg/kg SN-38 IV twice a week x4 weeks, irinotecan 15 mg/kg twice a week) was “marginal therapeutic effect and survival extension”. Further, in [5] (small tumors, twice a week x4 weeks), the “t50% survival (event-free)” value was determined as 20 days. Moreover, the “tumor growth (bioluminescence)” value in experiment [7] is “marginal effect”; in experiment [8] it was “marginal antitumor effect”.
`CCc1c2c(nc3ccc(O)cc13)-c1cc3c(c(=O)n1C2)COC(=O)[C@]3(O)CC` [SN38, 7-ethyl-10-hydroxy-camptothecin]: in [9], the “sensitivity of clones with higher ABCG2 levels” value was “increasingly resistant”. Also, the “concentration required for cell growth inhibition by 90%” value in the experiment with BE(1) cells was 2 ng/mL. Besides, in the experiment with BE(2)C cells [10], the “potentiation of antiproliferative effect by vorinostat” value was “moderately synergized”. The “BE(2)C cell growth inhibition” value in the experiment on BE(2)C cells [11] is “marginally inhibited”. Besides, the “concentration required for cell growth inhibition by 90% (therapeutic threshold)” value in the experiment with BE(2)C cells [12] is 25 ng/mL.
Regarding `CCc1c2c(nc3ccccc13)-c1cc3c(c(=O)n1C2)COC(=O)[C@]3(O)CC` [SN22, 7-ethyl-camptothecin], in experiment [9] (NLF clones with trace, low, intermediate ABCG2, 50 ng/ml, day 4), the “sensitivity of clones with higher ABCG2 levels” value is recorded as “remained fully sensitive”. In the experiment with BE(2)C cells [13], the “responsiveness of BE(2)C cells vs IMR-32” value is “strongly shifted in comparison to IMR-32 toward higher doses and longer exposure durations”.
